Laboratory results taken from publication PMC3118939 (Chemical research in toxicology, 2011).
Where two headings read alike, the source gives them in different places.

Columns and labels:
human hepatocytes [1] = experiment: 4-ABP- and HAA-DNA adduct formation in freshly cultured human hepatocytes; conditions: carcinogen 10 μM, 24 h incubation
rodents = conditions: cited from earlier work
[2] = test system: hypoxanthine phosphoribosyl transferase (hprt) gene of Chinese hamster ovary cells (CHO); assay type: cell-based; conditions: estimated from ref 53, 69-71
human hepatocytes [3] = conditions: cited from earlier work; for dose metabolized in human hepatocyte preparations: 10 μM dose; for dose that underwent metabolism: human hepatocytes, 10 μM, after 24 h incubation, previous studies
P450 1A2 = conditions: human versus rat P450 1A2; cited from earlier work
rat hepatocytes = conditions: cited from earlier work; for extent of metabolism in rat hepatocytes: even after 24 h; for N-oxidation products as share of the dose: rat hepatocytes
[4] = test system: colon of C57BL/6 mice (Big Blue mouse); conditions: cited from earlier work
colon of C57BL/6 mice = conditions: cited from earlier work
rat = rat model; cited from earlier work
CDF1 mice = conditions: cited from earlier work
human hepatocytes [5] = experiment: 4-ABP and HAA biotransformation in human hepatocytes; assay type: in vitro ADME; conditions: PhIP 10 μM in human hepatocytes

SMILES | DNA adduct formation, Adducts per 10^7 Bases (human hepatocytes [1]; human hepatocytes donor HH A) [Adducts per 10^7 Bases] | DNA adduct formation, Adducts per 10^7 Bases (human hepatocytes [1]; human hepatocytes donor HH B) [Adducts per 10^7 Bases] | DNA adduct formation, Adducts per 10^7 Bases (human hepatocytes [1]; human hepatocytes donor HH C) [Adducts per 10^7 Bases] | DNA adduct formation, Adducts per 10^7 Bases (human hepatocytes [1]; human hepatocytes donor HH D) [Adducts per 10^7 Bases] | DNA adduct formation, Adducts per 10^7 Bases (human hepatocytes [1]; human hepatocytes donor HH G) [Adducts per 10^7 Bases] | DNA adduct formation, Adducts per 10^7 Bases (human hepatocytes [1]; human hepatocytes donor HH H) [Adducts per 10^7 Bases] | DNA adduct formation, Adducts per 10^7 Bases (human hepatocytes [1]; human hepatocytes donor HH F) [Adducts per 10^7 Bases] | other results
Cn1c(Nc2nc3c(=O)[nH]c(N)nc3n2[C@H]2C[C@H](O)[C@@H](CO)O2)nc2c3cccnc3ccc21 [dG-C8-IQ, N-(deoxyguanosin-8-yl)-IQ] | 9.8 ± 1.1 | 10.3 ± 0.6 | 18.3 ± 0.8 | 26.2 ± 1.9 | 13.5 ± 1.5 | 7.0 ± 2.2 |  | 
Cc1cnc2ccc3c(nc(Nc4nc5c(=O)[nH]c(N)nc5n4[C@H]4C[C@H](O)[C@@H](CO)O4)n3C)c2n1 [dG-C8-MeIQx, N-(deoxyguanosin-8-yl)-MeIQx] | 3.4 ± 0.3 | 12.4 ± 0.6 | 13.9 ± 0.2 | 12.2 ± 3.5 | 16.1 ± 1.0 | 5.1 ± 0.1 | 19.0 ± 1.9 | 
Nc1ccc(-c2ccccc2)cc1 [4-ABP, 4-aminobiphenyl] |  |  |  |  |  |  |  | cancer induction (rodents): induces cancer of the urinary bladder, liver, and mammary gland; hprt mutants induced by one dG-C8 adduct per 10^7 bases in the CHO genome ([2]; dose concentration 2 μM): ~ 0.7 hprt mutants per one million c
Nc1nc2c(nc(Nc3ccc4c(n3)[nH]c3ccccc34)n2[C@H]2C[C@H](O)[C@@H](CO)O2)c(=O)[nH]1 [dG-C8-AαC, N-(Deoxyguanosin-8-yl)-AαC] |  | 32.5 ± 1.8 | 44.4 ± 5.6 | 109 ± 6.4 | 82.0 ± 15.4 | 31.4 ± 3.3 | 72.0 ± 5.9 | 
Cn1c(N)nc2ncc(-c3ccccc3)cc21 [PhIP, 2-amino-1-methyl-6-phenylimidazo[4,5-b]pyridine] |  |  |  |  |  |  |  | dose metabolized in human hepatocyte preparations (human hepatocytes [3]): > 75%; dose that underwent metabolism (human hepatocytes [3]): up to 97%; catalytic efficiency of N-oxidation, human P450 1A2 superior to rat P450 1A2 (P450 1A2): 19 fold; hprt mutants induced by one dG-C8 adduct per 10^7 bases in the CHO genome ([2]; dose concentration 1.2 μM): ~2.8 hprt mutants per one million c; extent of metabolism in rat hepatocytes (rat hepatocytes): poorly metabolized; N-oxidation products as share of the dose (rat hepatocytes): less than 2%
Cc1cnc2ccc3c(nc(N)n3C)c2n1 [MeIQx, 2-amino-3,8-dimethylimidazo[4,5-f]quinoxaline] |  |  |  |  |  |  |  | dose metabolized in human hepatocyte preparations (human hepatocytes [3]): > 75%; dose that underwent metabolism (human hepatocytes [3]): up to 97%; catalytic efficiency of N-oxidation, human P450 1A2 superior to rat P450 1A2 (P450 1A2): 11 fold; hprt mutants induced by one dG-C8 adduct per 10^7 bases in the CHO genome ([2]; dose concentration 1.5 μM): about 1.5 hprt mutants per one million c; extent of metabolism in rat hepatocytes (rat hepatocytes): poorly metabolized; N-oxidation products as share of the dose (rat hepatocytes): less than 2%
Nc1nc2c(nc(Nc3ccc(-c4ccccc4)cc3)n2[C@H]2C[C@H](O)[C@@H](CO)O2)c(=O)[nH]1 [dG-C8-4-ABP, N-(Deoxyguanosin-8-yl)-4-aminobiphenyl] |  | 150 | 38.8 ± 4.8 | 100 | 87.9 ± 8.3 | 70.0 ± 5.8 | 49.0 ± 1.7 | 
Nc1ccc2c(n1)[nH]c1ccccc12 [AαC, 2-amino-9H-pyrido[2,3-b]indole] |  |  |  |  |  |  |  | lacI transgene mutagenicity [4]: potent lacI transgene mutagen; aberrant crypt foci (colon of C57BL/6 mice): induces aberrant crypt foci; hepatocarcinogenicity (rat): not a hepatocarcinogen; tumor induction (CDF1 mice): causes liver and blood vessel tumors; hprt mutants induced by one dG-C8 adduct per 10^7 bases in the CHO genome ([2]; dose concentration 1.5 μM): ~2.5 hprt mutants per one million c
Cn1c(=NO)n([C@@H]2O[C@H](C(=O)O)[C@@H](O)[C@H](O)[C@H]2O)c2ncc(-c3ccccc3)cc21 [HONH-N3-PhIP] |  |  |  |  |  |  |  | level of metabolite formed, lower than HON-PhIP-N^2-Gl (human hepatocytes [5]): ~ 10 fold
Cn1c(Nc2nc3c(=O)[nH]c(N)nc3n2[C@H]2C[C@H](O)[C@@H](CO)O2)nc2ncc(-c3ccccc3)cc21 [dG-C8-PhIP, N-(deoxyguanosin-8-yl)-PhIP] | 13.4 ± 1.7 | 22.0 | 7.5 ± 1.6 | 7.7 ± 1.0 | 30.6 ± 2.4 | 6.0 ± 1.0 | 14.0 ± 0.6 | 
